The record followed here is PubChem BioAssay AID330 (DTP/NCI, 2004).

Several values for one entry are separate records, joined by “and”; a condition that tells them apart may be missing. Equal values may be shown once. Inconclusive results and toxic doses are left out.

The experiment concerns P388 leukemia ip, CD2F1 mice, survival T/C. Put plainly: NCI In Vivo Anticancer Drug Screen. Data for tumor model P388 Leukemia (intraperitoneal) in CD2F1 (CDF1) mice. To be noted: endpoint: median survival time, higher = longer survival. Summed up: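 Mice carrying the transplanted tumor received test compound or vehicle. Survival was recorded in each group, and the value is the treated-group measurement divided by that of the vehicle-treated control group.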

Where [1] appears, read: dose: 50.0 mg/kg/injection, schedule: Q01DX009 (ip), vehicle: saline with Tween-80.
Where [2] appears, read: dose: 100.0 mg/kg/injection, schedule: Q01DX009 (ip), vehicle: saline with Tween-80.
[3] abbreviates: dose: 0.5 mg/kg/injection, schedule: Q01DX009 (ip), vehicle: water.
Setting [4] is: dose: 2.0 mg/kg/injection, schedule: Q01DX009 (ip), vehicle: water.
The mark [5] stands for this setting: dose: 4.0 mg/kg/injection, schedule: Q01DX009 (ip), vehicle: water.
[6] abbreviates: dose: 8.0 mg/kg/injection, schedule: Q01DX009 (ip), vehicle: water.
The mark [7] stands for this setting: dose: 200.0 mg/kg/injection, schedule: Q01DX009 (ip), vehicle: saline with Tween-80.

For `CCOC(=O)C(=O)C(C#N)c1ccccc1CC#N` (stereo unspecified), the T/C was 109 % of control (dose: 50.0 mg/kg/injection, schedule: Q01DX005 (ip), vehicle: saline with Tween-80) and 97 % of control (dose: 100.0 mg/kg/injection, schedule: Q01DX005 (ip), vehicle: saline with Tween-80).

For the molecule `CC(=O)c1oc(C)nc1C`, the T/C (dose: 50.0 mg/kg/injection, schedule: Q01DX009 (ip), vehicle: saline) is 104 % of control; the T/C (dose: 100.0 mg/kg/injection, schedule: Q01DX009 (ip), vehicle: saline) was 100 % of control; the T/C (dose: 200.0 mg/kg/injection, schedule: Q01DX009 (ip), vehicle: saline) is 104 % of control.

For the molecule `Cc1cccc2ncc([N+](=O)[O-])n12`, the T/C runs as follows: under setting [1], 114 % of control and 88 % of control; under setting [2], 102 % of control and 89 % of control.

For the molecule `CN(C)c1ccc(C2(c3ccc(N(C)C)cc3)NNC(=O)c3cc(N(C)C)ccc32)cc1`, the T/C runs as follows: (dose: 1.5 mg/kg/injection, schedule: Q01DX005 (ip), vehicle: saline) 100 % of control; (dose: 3.0 mg/kg/injection, schedule: Q01DX005 (ip), vehicle: saline) 93 % of control; (dose: 6.0 mg/kg/injection, schedule: Q01DX005 (ip), vehicle: saline) 95 % of control; (dose: 6.25 mg/kg/injection, schedule: Q01DX005 (ip), vehicle: saline with Tween-80) 92 % of control.

Take `NNC(=O)c1nc2ccccc2s1`: the T/C (dose: 37.5 mg/kg/injection, schedule: Q04DX003 (ip), vehicle: saline with Tween-80) was 100 % of control; the T/C (dose: 75.0 mg/kg/injection, schedule: Q04DX003 (ip), vehicle: saline with Tween-80) was 100 % of control; the T/C (dose: 150.0 mg/kg/injection, schedule: Q04DX003 (ip), vehicle: saline with Tween-80) is 95 % of control.

On to `COc1cccc2c1C(=O)c1c(O)c3c(c(O)c1C2=O)C[C@@](O)(/C(C)=N/NC(=O)c1ccc(N(C)C)cc1)C[C@@H]3OC1CC(N)C(O)C(C)O1` (stereo partly specified), for which the T/C by setting is: (dose: 0.12 mg/kg/injection, schedule: Q01DX009 (ip), vehicle: water) 94 % of control; (dose: 0.25 mg/kg/injection, schedule: Q01DX009 (ip), vehicle: water) 111 % of control; under setting [3], 150 % of control and 154 % of control; (dose: 1.0 mg/kg/injection, schedule: Q01DX009 (ip), vehicle: water) 154 % of control and 164 % of control; under setting [4], 164 % of control and 181 % of control; under setting [5], 157 % of control and 172 % of control. Also, the T/C under setting [6] was 86 % of control; the T/C (dose: 10.0 mg/kg/injection, schedule: Q01DX001 (ip), vehicle: water) was 159 % of control; the T/C (dose: 16.0 mg/kg/injection, schedule: Q01DX009 (ip), vehicle: water) was 89 % of control; the T/C (dose: 20.0 mg/kg/injection, schedule: Q01DX001 (ip), vehicle: water) was 166 % of control; the T/C (dose: 40.0 mg/kg/injection, schedule: Q01DX001 (ip), vehicle: water) is 115 % of control.

With `Cc1ccc2c(c1)nc(-c1ccccn1)n2CCc1ccccn1`, the T/C runs as follows: (dose: 50.0 mg/kg/injection, schedule: Q04DX002 (ip), vehicle: Klucel (hydroxypropylcellulose) (HPC)) 100 % of control; (dose: 100.0 mg/kg/injection, schedule: Q04DX002 (ip), vehicle: Klucel (hydroxypropylcellulose) (HPC)) 102 % of control; (dose: 200.0 mg/kg/injection, schedule: Q04DX002 (ip), vehicle: Klucel (hydroxypropylcellulose) (HPC)) 105 % of control.

Take `CC[C@](O)(C(=O)O)c1cc2n(c(=O)c1CO)Cc1cc3ccccc3nc1-2`: the T/C (dose: 0.5 mg/kg/injection, schedule: Q01DX009 (ip), vehicle: saline with Tween-80) is 118 % of control; the T/C under setting [3] is 120 % of control; the T/C (dose: 1.57 mg/kg/injection, schedule: Q04DX003 (ip), vehicle: other) was 116 % of control and 119 % of control; the T/C (dose: 2.0 mg/kg/injection, schedule: Q01DX009 (ip), vehicle: saline sonified) is 163 % of control; the T/C (dose: 2.0 mg/kg/injection, schedule: Q01DX009 (ip), vehicle: saline with Tween-80) is 159 % of control; the T/C under setting [4] was 158 % of control. In addition, the T/C was 120 % of control (dose: 2.5 mg/kg/injection, schedule: Q04DX003 (ip), vehicle: water); 100 % of control (dose: 4.0 mg/kg/injection, schedule: Q01DX009 (ip), vehicle: saline sonified); 195 % of control (dose: 4.0 mg/kg/injection, schedule: Q01DX009 (ip), vehicle: saline with Tween-80); 207 % of control under setting [5]; 111 % of control (dose: 5.0 mg/kg/injection, schedule: Q04DX003 (ip), vehicle: water); 156 % of control and 159 % of control (dose: 6.25 mg/kg/injection, schedule: Q04DX003 (ip), vehicle: other). The T/C runs as follows: (dose: 6.25 mg/kg/injection, schedule: Q04DX003 (ip), vehicle: water) 154 % of control; under setting [6], 100 % of control; (dose: 9.72 mg/kg/injection, schedule: Q04DX002 (ip), vehicle: saline) 108 % of control; (dose: 10.0 mg/kg/injection, schedule: Q04DX003 (ip), vehicle: water) 155 % of control; (dose: 10.8 mg/kg/injection, schedule: Q04DX002 (ip), vehicle: saline) 160 % of control; (dose: 12.5 mg/kg/injection, schedule: Q04DX003 (ip), vehicle: other) 106 % of control and 113 % of control. Moreover, the T/C (dose: 13.0 mg/kg/injection, schedule: Q04DX003 (ip), vehicle: saline) is 185 % of control; the T/C (dose: 18.0 mg/kg/injection, schedule: Q04DX002 (ip), vehicle: saline) is 159 % of control; the T/C (dose: 20.0 mg/kg/injection, schedule: Q04DX003 (ip), vehicle: water) is 178 % of control and 220 % of control; the T/C (dose: 21.6 mg/kg/injection, schedule: Q04DX003 (ip), vehicle: saline) is 217 % of control; the T/C (dose: 25.0 mg/kg/injection, schedule: Q04DX003 (ip), vehicle: other) is 98 % of control and 90 % of control; the T/C (dose: 25.0 mg/kg/injection, schedule: Q04DX003 (ip), vehicle: water) is 154 % of control. Also, the T/C runs as follows: (dose: 30.0 mg/kg/injection, schedule: Q04DX002 (ip), vehicle: saline) 177 % of control; (dose: 36.0 mg/kg/injection, schedule: Q04DX003 (ip), vehicle: saline) 233 % of control; (dose: 40.0 mg/kg/injection, schedule: Q04DX003 (ip), vehicle: water) 212 % of control and 94 % of control; (dose: 45.0 mg/kg/injection, schedule: Q04DX002 (ip), vehicle: saline) 157 % of control and 196 % of control; (dose: 50.0 mg/kg/injection, schedule: Q04DX002 (ip), vehicle: saline) 183 % of control; (dose: 60.0 mg/kg/injection, schedule: Q04DX003 (ip), vehicle: saline) 93 % of control. For the same molecule, the T/C reads like this: (dose: 83.3 mg/kg/injection, schedule: Q04DX002 (ip), vehicle: saline) 91 % of control; (dose: 128.0 mg/kg/injection, schedule: Q04DX003 (ip), vehicle: saline) 58 % of control.

For the molecule `CCCCCCCCCCCCCCCCN1CCC2SC3CN(CCCCCCCCCCCCCCCC)CCC3SC2C1` (stereo unspecified), the T/C under setting [1] is 99 % of control, the T/C under setting [2] is 96 % of control and the T/C under setting [7] was 97 % of control.

With `CC(C)CC(C(=O)O)N1C(=O)C=CC1=O` (stereo unspecified), the T/C runs as follows: (dose: 12.5 mg/kg/injection, schedule: Q01DX009 (ip), vehicle: Klucel (hydroxypropylcellulose) (HPC)) 93 % of control; (dose: 25.0 mg/kg/injection, schedule: Q01DX009 (ip), vehicle: Klucel (hydroxypropylcellulose) (HPC)) 107 % of control.

Consider `c1ccc2c(c1)nc1n2CC2(CS1)CSc1nc3ccccc3n1C2`, for which the T/C was 88 % of control under setting [1] and 91 % of control under setting [2].

Consider `NC(=S)n1nc(-c2ccccc2)c(N=Nc2cccc(Cl)c2Cl)c1-c1ccccc1`, for which the T/C was 89 % of control (dose: 100.0 mg/kg/injection, schedule: Q01DX001 (ip), vehicle: saline with Tween-80); 94 % of control (dose: 200.0 mg/kg/injection, schedule: Q01DX001 (ip), vehicle: saline with Tween-80); 97 % of control (dose: 400.0 mg/kg/injection, schedule: Q01DX001 (ip), vehicle: saline with Tween-80).

With `OCCN1CCC2(CC1)SSC1(CCN(CCO)CC1)S2`, the T/C by setting is: (dose: 50.0 mg/kg/injection, schedule: Q04DX003 (ip), vehicle: saline) 100 % of control; (dose: 100.0 mg/kg/injection, schedule: Q04DX003 (ip), vehicle: saline) 100 % of control; (dose: 200.0 mg/kg/injection, schedule: Q04DX003 (ip), vehicle: saline) 100 % of control.

As for `O=C(O)c1oc2ccccc2c1/C=C/c1ccccc1`, the T/C is 100 % of control under setting [1], 97 % of control under setting [2] and 100 % of control under setting [7].
